# Experimental data published in BindingDB's records for patent US10934302 (Relay Therapeutics, 2021).
# Molecular target: T1, Tyrosine-protein phosphatase non-receptor type 11 (Homo sapiens, UniProt Q06124)
# T1 sequence (Q06124 whole entry): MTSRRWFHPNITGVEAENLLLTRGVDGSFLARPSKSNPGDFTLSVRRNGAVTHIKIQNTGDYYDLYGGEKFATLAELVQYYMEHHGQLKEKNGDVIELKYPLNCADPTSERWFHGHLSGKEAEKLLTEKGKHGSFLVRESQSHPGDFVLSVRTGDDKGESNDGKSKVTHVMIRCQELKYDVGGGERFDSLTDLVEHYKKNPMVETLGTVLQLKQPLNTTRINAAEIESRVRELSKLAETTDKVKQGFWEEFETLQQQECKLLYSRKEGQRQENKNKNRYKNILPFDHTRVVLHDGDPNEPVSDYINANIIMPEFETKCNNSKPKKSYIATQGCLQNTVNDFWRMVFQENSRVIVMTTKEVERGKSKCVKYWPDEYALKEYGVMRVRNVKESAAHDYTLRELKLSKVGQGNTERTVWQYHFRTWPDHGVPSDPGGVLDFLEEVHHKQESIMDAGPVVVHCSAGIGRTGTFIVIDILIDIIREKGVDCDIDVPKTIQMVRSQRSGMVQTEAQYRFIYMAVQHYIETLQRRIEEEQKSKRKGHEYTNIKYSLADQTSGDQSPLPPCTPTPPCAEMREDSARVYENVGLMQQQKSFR
# Assay: Allosteric Inhibition Assay
row,Compound,IC50 [nM]
1,"N[C@@H]1c2ccccc2CC12CCN(c1cnc(/C(=N/O)c3ccccc3)cn1)CC2 [US10934302, Example 257]",< 50
2,"N[C@@H]1c2ccccc2CC12CCN(c1cnc(SCC3CC3)cn1)CC2 [US10934302, Example 266]",< 50
3,"Cc1cc(C(=O)N2CCC3(CC2)Cc2ccccc2[C@H]3N)nn1-c1ccc(F)cc1F [US10934302, Example 289]",< 50
